Experiments:
[1] = test system: Mus musculus; test: Effective dose after subcutaneous administration using rotarod test in mice; format: functional
[2] = target: T1, Glutamate receptor ionotropic, NMDA 1 (Rattus norvegicus, UniProt P35439); test: Binding affinity by displacement of [3H]TCP from PCP N-methyl-D-aspartate glutamate receptor of tissue homogenate preparation of rat brain without cerebellum (in vitro); format: tissue-based
[3] = target: T1, Glutamate receptor ionotropic, NMDA 1; test: Binding affinity by displacement of [3H]TCP from PCP N-methyl-D-aspartate glutamate receptor of tissue homogenate preparation of rat brain without cerebellum; format: tissue-based
[4] = test system: Mus musculus; test: ED50 value by rotarod test on mice at different dosage levels upon subcutaneous administration; format: functional; conditions: sc

| Compound | ED50 [1] [mg/kg] | Ki [2] [µM] | Ki [3] [µM] | ED50 ([1]; Mus musculus, sc, read-out: ED50) [mg/kg] | ED50 [4] [mg/kg] |
| --- | --- | --- | --- | --- | --- |
| CC1CCCCC1(c1ccccc1)N1CCCCC1 (stereo in doubt; (+)-2) | 7.5 | 0.1 |  |  |  |
| CC1CCCCC1(c1ccccc1)N1CCCCC1 (stereo in doubt; 3) | >150 | 7.4 |  |  |  |
| CC1CCC(c2ccccc2)(N2CCCCC2)CC1 (stereo in doubt; 18) | 5.5 | 0.166 |  |  |  |
| CC1CCCCC1(c1ccccc1)N1CCCCC1 (stereo in doubt; (-)-3) |  | 2.18 |  |  |  |
| CC1CCCCC1(c1ccccc1)N1CCCCC1 (stereo in doubt; (-)-2) | 1.9 | 0.011 |  |  |  |
| CC1CCC(c2ccccc2)(N2CCCCC2)CC1 (stereo in doubt; 17) | >150 | 0.617 |  |  |  |
| CC1CCCCC1(c1ccccc1)N1CCCCC1 (trans isomer) | 3.3 | 0.025 |  |  |  |
| CC1CCCCC1(c1ccccc1)N1CCCCC1 (stereo in doubt; (+)-3) | >100 | 2.94 |  |  |  |
| CC1CCCCC1(C(=N)c1ccccc1)N1CCCCC1 (trans isomer) |  |  | 23 |  |  |
| c1ccc(C2(N3CCCCC3)CCCCC2)cc1 [PHENCYCLIDINE] |  | 0.053 |  | 4 |  |
| CC1CCCCC1(C(=N)c1ccccc1)N1CCCCC1 (cis isomer) |  |  | 4.7 |  | > 100 |
| N=C(c1ccccc1)C1(N2CCCCC2)CCCCC1 |  |  | 31 |  | > 100 |

— ChEMBL document CHEMBL1125191, “Synthesis, stereochemistry, and biological activity of the 1-(1-phenyl-2-methylcyclohexyl)piperidines and the 1-(1-phenyl-4-methylcyclohexyl)piperidines. Absolute configuration of the potent trans-(-)-1-(1-phenyl-2-methylcyclohexyl)piperidine” (J Med Chem, 1991)
